The assay concerns the target T1, Sclerostin (Homo sapiens, UniProt Q9BQB4).
T1 construct: host or cells: human embryonic cells (reporter cells)
T1 sequence (Q9BQB4 24-213): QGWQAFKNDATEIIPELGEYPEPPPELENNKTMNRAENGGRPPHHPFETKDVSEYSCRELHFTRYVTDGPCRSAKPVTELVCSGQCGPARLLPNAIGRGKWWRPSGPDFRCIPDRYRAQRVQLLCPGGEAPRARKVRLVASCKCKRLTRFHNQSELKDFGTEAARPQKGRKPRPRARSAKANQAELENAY
Nature of the assay: Luciferase Wnt pathway activity assay: inhibition of sclerostin by restoration of Wnt signaling in human cells. In kind it is cell-based. The procedure:
The Y axis represents Relative Light Units (RLU) which represents Wnt pathway signaling. Addition of Wnt (W) activates the Wnt pathway, while addition of Sclerostin (S) inhibits the Wnt pathway. […] Compound concentrations are indicated in μM.
Briefly, cells (e.g., human cells) are treated with a predetermined dose of a candidate compound for a complete dosing schedule.
Concentrations are indicated along the X axis in micromolar values.

By IC50 is commonly meant the point on the concentration scale where inhibition reaches its midpoint. Low readings indicate greater potency in that assay, high ones weaker potency in that assay.

Regarding `COc1cc2c(cc1O)C[C@H]1c3c(cc(O)c(OC)c3-2)CCN1C` [Compound 1, (S)-1,10-dimethoxy-6-methyl-5,6,6a,7-tetrahydro-4H-dibenzo[de,g]quinoline-2,9-diol], the 50% inhibitory concentration (IC50) amounted to 5 µM.

Source of the values: patent US20140023653A1, “BOLDINE DERIVATIVES FOR PROMOTING BONE GROWTH” (OSTEOGENEX, INC., priority 2012, published 2014).
